{"source": "patent US8071716B2", "about": "“Thymus-specific protein” (Immune System Key Ltd., priority 2004, dated 2011)", "key": {"[1]": {"test_system": "human peripheral blood lymphocytes (PBL)", "test": "BrdU incorporation proliferation assay in human PBL", "type": "cell-based", "details": "for proliferation stimulating activity, in words: conclusions from Table 1", "description": "The T101 peptide was tested for its ability to activate proliferation of mouse spleenocytes or thymocytes (two mouse strains were used: CD1 and Balb/C), as well as human peripheral blood lymphocytes (PBL). The proliferation activity was measured by 5-bromo 2′-deoxy-uridine (BrdU) incorporation into these cells.\nHuman PBL were isolated on a Ficole gradient from blood taken from volunteers and then plated in 96-well plates, again using RPMI 1640+10% FCS+Pen/Str.\nThe cells were treated with different concentrations of the peptide or saline (as above) and after 48 hours were labeled for 6 hours with BrdU and tested for BrdU incorporation into their nucleus.\nIn the next experiment, several deletion mutants of the T101 peptide were constructed and synthesized. These mutants were tested for their ability to stimulate proliferation in human PBL. The right-hand column indicates the fold increase in proliferation over proliferation in untreated cells."}, "[2]": {"test": "Solubility in aqueous solution", "type": "physicochemical"}}, "note": "Where no end group is shown, it is not given here."}
{"substance": "Mut #3: 23 C-terminal amino acids of the T101 peptide: DKQLISKAVWWTFFLPSTLWERK (listed as Homo sapiens)", "values": [{"measurement": "Fold Increase in proliferation over proliferation in untreated cells", "setting": "[1]", "value": "2.2-2.8 Fold"}, {"measurement": "proliferation stimulating activity, in words", "setting": "[1]", "value": "very active"}]}
{"substance": "Mut #1: 13 C-terminal amino acids of the T101 peptide: WTFFLPSTLWERK (listed as Homo sapiens)", "values": [{"measurement": "Fold Increase in proliferation over proliferation in untreated cells", "setting": "[1]", "value": "2.5-3 Fold"}, {"measurement": "proliferation stimulating activity, in words", "setting": "[1]", "value": "very active"}]}
{"substance": "Mut #4: 8 C-terminal amino acids of the T101 peptide: PSTLWERK (Table 1 prints PSTLTWERK) (listed as Homo sapiens)", "values": [{"measurement": "Fold Increase in proliferation over proliferation in untreated cells", "setting": "[1]", "value": "1.1-1.3 Fold"}, {"measurement": "proliferation stimulating activity, in words", "setting": "[1]", "value": "almost no activity"}]}
{"substance": "Mut #6: amino acids 36 to 51 of the T101 peptide in the reverse order: KREWLTSPLFFTWWVA (listed as Homo sapiens)", "values": [{"measurement": "Fold Increase in proliferation over proliferation in untreated cells", "setting": "[1]", "value": "2-2.4 Fold"}]}
{"substance": "Mut #5: amino acids 36 to 48 of the T101 peptide: AVWWTFFLPSTLW (listed as Homo sapiens)", "values": [{"measurement": "Fold Increase in proliferation over proliferation in untreated cells", "setting": "[1]", "value": "2-2.2 Fold"}]}
{"substance": "Mut #2: amino acids 6 to 28 of the T101 peptide: SGEPVQSSGTKDMRSKSDSKRVS (listed as Homo sapiens)", "values": [{"measurement": "Fold Increase in proliferation over proliferation in untreated cells", "setting": "[1]", "value": "1.4-1.6 Fold"}, {"measurement": "proliferation stimulating activity, in words", "setting": "[1]", "value": "relatively low activity"}]}
{"substance": "LHLWLSGEPVQSSGTKDMRSKSDSKRVSDKQLISKAVWWTFFLPSTLWERK [T101 peptide]", "values": [{"measurement": "solubility in an aqueous solution", "setting": "[2]", "value": "soluble"}]}
